Test results as given in patent publication US20080113934A1, “USE OF DIPYRIDAMOLE OR MOPIDAMOL FOR TREATMENT AND PREVENTION OF FIBRIN-DEPENDENT MICROCIRCULATION DISORDERS” (priority 1999, published 2008).
“Also recorded” adds a separate entry of the source.

Assays:
[1] = test system: common carotid artery of rabbits (angioplasty site); assay: Study using radiolabeled platelets and fibrinogen in vivo after balloon angioplasty of the carotid artery; details: rabbit carotid artery, monitored four hours after angioplasty; heparin 100 U/kg bolus followed by 25 U/kg/h infusion; dipyridamole 0.25 mg/kg followed by 0.45 mg/kg/hr
Protocol: FIG. 1: Simultaneous detection of ^99Tc labeled platelets and ^123I-labeled fibrinogen at one minute intervals after angioplasty of the common carotid artery of rabbits. […] No injury measurements showing constant radioactivity.
FIG. 2: Deposition of radioactive labeled platelets (^99Tc) and fibrinogen (123I) at angioplasty site after treatment with dipyridamole (0.25 mg/kg followed by 0.45 mg/kg/hr).
The effects of dipyridamole and heparin were investigated using platelets radiolabeled with ^99Tc and fibrinogen labeled with ^123I. The method is described in Lorenz, M. et al., Nuclear Instruments and Methods in Physics Research A., 1994, 353:448-452. An energy-sensitive solid-state radiation detector was placed to surround each carotid artery in rabbits. After inducing injury through balloon angioplasty, the accretion of platelets and fibrinogen was monitored for four hours. […] Accretion was not detected in radiolabeled platelets injected 30 minutes after injury; apparently the angioplasty site had been passivated by endogenous platelet adherence. […] (FIG. 2).

[2] = ESPS-2; compared with low-dose aspirin / aspirin alone; cited from earlier work

| Compound | accretion (deposition) of 99Tc labeled platelets at angioplasty site [1] | accretion (deposition) of 123I-labeled fibrinogen at angioplasty site [1] | reduction of stroke risk [2] |
| --- | --- | --- | --- |
| OCCN(CCO)c1nc(N2CCCCC2)c2nc(N(CCO)CCO)nc(N3CCCCC3)c2n1 [dipyridamole, 2,6-bis(diethanolamino)-4,8-dipiperidino-pyrimido[5,4-d]pyrimidine] | reduced; also recorded: reduction in platelet aggregation which was similar to that seen with heparin | almost entirely blocked; also recorded: far greater with dipyridamole than with heparin | as effective as low-dose aspirin |
| heparin | reduction of platelet as well as fibrinogen accretion; also recorded: reduced accumulation of both platelets and fibrinogen | reduction of platelet as well as fibrinogen accretion; also recorded: reduced accumulation of both platelets and fibrinogen | – |
